How the values were obtained:
[1] = test system: human primed state stem cells; experiment: Stem cell drug screen on primed state stem cells (pluripotency, proliferation, differentiation); format: cell-based; conditions: primed state stem cells; 6 uM per FIGS. 46-64
Protocol: The stem cell screening assay, was performed in both the presence and absence of the stem cell growth factors: NME7AB for growing naïve stem cells or FGF for growing primed stem cells. If the cognate growth factor was present, then the biological or small molecule would have to compete away the growth factor to get an effect. Therefore, we expected to see more of an effect when the growth factor, FGF for primed stem cells or NME7AB or NME1 dimers for naïve stem cells, was absent. The effect of the compounds on stem cells was visually determined and compounds were ranked 0-4, with 4 being the greatest effect and 0 being no observable effect. The major effect that was observed was a change from pluripotent stem cell morphology, which is a cobblestone pattern of small round cells with a large nucleus to cytoplasm ratio, to that of differentiating stem cells, which are elongated, large and flattened cells with a smaller nucleus to cytoplasm ratio. […] The compounds were added to a final concentration of 6 uM to either naïve state stem cells or primed state stem cells. In this particular case, the naïve state stem cells were maintained in a naïve state by culturing in a media containing NME7AB or NME1 dimers. However, other methods such as 2i and 5i (Silva et al., 2008, Nichols and Smith, 2009, Theunissen et al., 2014)] can be used to maintain stem cells in a more naïve state. In this case primed state stem cells were cultured in bFGF over a layer of MEFs, although it is known that any bFGF containing media will maintain stem cells in the primed state.
(§1) Percent inhibition of cancer cell migration was performed in a wound healing assay. The percent area that the invading cancer cells occupied, in the presence of a drug candidate compared to the controls, was quantified by Image J cell software which enables cell counting from photographs. IC50's were calculated by performing migration experiments at several compound concentrations and then applying Hill's equation. Inhibition of cancer cell proliferation was quantified by automated cell counting in the presence or absence of a drug candidate. Here, the inhibition of cancer cell proliferation was scored 1 if proliferation was inhibited by 25%, 2 if inhibited by […] and 4 for the highest degree of inhibition of proliferation, and 0 for the lowest. The effect of the drug candidates on stem cell pluripotency or proliferation was scored by eye, based on cell morphology and cell density, with 0 being no change in morphology or cell number and 4 being the most profound effect, with the stem cells taking on the morphology of a differentiating cell, along with much fewer cells indicative of inhibition of proliferation. As an example, FIGS. 30A-30F show photographs of naïve stem cell, primed stem cell and fibroblast controls. FIGS. 31A-31F show the effect of compounds of the invention on naïve state stem cells, where the number of ‘+’ signs indicates the score from 0-4 of ability of compound to inhibit pluripotency, proliferation of naïve stem cells or ability to induce their differentiation. […] FIGS. 36-44 and 65-87 show photographs and IC50 graphs of the compounds of the invention, inhibiting cancer cell migration and invasion. Cancer cell migration is a hallmark of metastatic cancer.
Stem cells whether embryonic or induced pluripotent stem (iPS) cells were cultured in a minimal, serum-free media that contained human recombinant bFGF at a concentration of 8 ng/mL. The stem cells were plated over a layer of inactivated mouse embryonic fibroblasts, aka MEFs, which secrete additional uncharacterized growth factors and cytokines.
Human naïve state and primed stem cells were cultured in parallel for at least 5 passages to guarantee normal differentiation-free growth. The stem cells were plated in 12-well cell culture plates with 50,000 cells per well. Cells were cultured in their respective media, either bFGF media or NME7AB media for 24 hours. […]

T47D breast cancer cells = experiment: Cancer cell migration assay (wound healing / Platypus); format: cell-based, human; conditions: cell line not given, FIGS. 65-80 use T47D, 120 hours; for IC50: Homo sapiens, read-out: IC50 of inhibition of cancer cell migration
Description: Potent cancer cell migration is characteristic of cancer cell invasion of other tissues and of metastasis. Typical migration assays involve coating a cell culture plate with fibronectin, collagen or the like, plating cancer cells and making a scar across through the cells and measuring the time it takes for the cancer cells to invade the void space. An alternative approach that gives more reliable data is the Platypus System which is a special multi-well cell culture plate with a juxtaposed set of plugs that block off a circle in the center of each well. Cancer cells are plated while the plugs are in place, then they are removed after the cells attach to the plate surface. […] In our cancer cell migration assays, the number of cells that have migrated into the empty space is quantified using Image J software. The effects of known anti-migration compounds are compared to the anti-MUC1* Fab E6 and the first few small molecule leads. The effect of two novel small molecules MN1186 and MN1194, compared to the known anti-migration molecule SU11274, is shown in FIG. 22A-22U. FIG. 22V is a graph showing the measured inhibition of cancer cell migration at time 0, 24 hours or 48 hours for a number of compounds. […] FIG. 22X is a graph showing how IC50's of the small molecules of the invention were measured and calculated.
as §1
For the cancer cell migration experiment cancer cells were plated at varying densities into an Oris Cell Migration Assay Collagen-1 coated 96-well plate (Platypus Technologies LLC, Madison, WI). The Collagen-1 coated 96-well plate incorporates a specific vacuum plug which attaches to the bottom of each well, creating an area in which the cells cannot grow into. Once the cells have been plated at high densities into each well, they are allotted an 18-24 hour time period to attach to the bottom of the wells. Post-24 hour plugs are removed from the plate and then small molecule analogs are added to the wells. Images are taken of each well and represent time 0 (T=0) for each well. Images are taken of the wells at the 24, 48, 72, 96 and 120 hour time points. Data analysis is conducted using the images taken at these specific time point. […]

| IC50 (T47D breast cancer cells) | SMILES | effect on primed state stem cells [1] | inhibited cancer cell migration (T47D breast cancer cells) |
| --- | --- | --- | --- |
| 10 nM | CN(C[C@H]1CC[C@H](C(=O)N2CCc3c([nH]c4ccccc34)C2C2CC2)CC1)C(=O)NC(C)(C)C (stereo partly drawn) [MN1413] | no effect | 83% |
| 12 nM | C[C@@H]1Cc2c([nH]c3ccccc23)CN1C(=O)C1CCC(CN(C)C(=O)NC(C)(C)C)CC1 (stereo partly drawn) [MN1423] | no effect | 84% |
| 7 nM | CN(CC1CCC(C(=O)N2CCC(c3ccncc3)CC2)CC1)C(=O)OC(C)(C)C (stereo not drawn) [MN1428, Tert-butyl methyl((4-(4-(pyridin-4-yl)piperidine-1-carbonyl)cyclohexyl)methyl)carbamate] | no effect | 79% |

From patent US12630512B2, “Agents for differentiating stem cells and treating cancer” (Minerva Biotechnologies Corporation, priority 2017, dated 2026)
